Test results from paper PMC2644789, “Dissection of Kinesin's Processivity” (PLoS ONE, 2009).

Key:
Format in all cases: biochemical, Neurospora crassa
Head3/Neck1 [1] = tested on: T1, Head3/Neck1; test: stopped-flow light scattering, ATP-induced microtubule detachment; conditions: dissociation of preformed apyrase-treated kinesin-microtubule complex, 0.4 µM complex, 0-1000 µM ATP; read-out: Detachment / K0.5,ATP
T1 construct: gene NcKin3; fusion in one polypeptide: NcKin3 residues 1-429 (motor and neck-linker) replacing the head of NcKin436 (NcKin head elsewhere 1-342); C-terminal PSIVHRKCF (cys) or hTail; dimer; with Kinesin heavy chain
Text: stopped-flow light scattering, ATP-induced microtubule detachment on Head3/Neck1

Head1/Neck3 = tested on: T2, Head1/Neck3; test: coupled enzymatic steady-state ATPase assay; conditions: microtubule-activated (pig brain tubulin), 12.5 mM Aces-KOH, 25 mM potassium acetate, 5 mM MgCl2, EGTA, pH 6.8, 22°C; read-out: Steady state ATPase / KM,ATP
T2 construct: gene NcKin; fusion in one polypeptide: NcKin residues 1-342 (motor and neck-linker) replacing the N-terminal 427 residues of NcKin3_558; C-terminal PSIVHRKCF (cys) or hTail; dimer; with Kinesin-3 motor protein NcKin3
Text: coupled enzymatic steady-state ATPase assay on Head1/Neck3

Head3/Neck1 [2] = tested on: T1, Head3/Neck1; test: coupled enzymatic steady-state ATPase assay; conditions: microtubule-activated (pig brain tubulin), 12.5 mM Aces-KOH, 25 mM potassium acetate, 5 mM MgCl2, EGTA, pH 6.8, 22°C; read-out: Steady state ATPase / KM,ATP
Text: coupled enzymatic steady-state ATPase assay on Head3/Neck1

[3] = substrate: Nc1ncnc2c1ncn2[C@@H]1O[C@H](COP(=O)(O)OP(=O)(O)OP(=O)(O)O)[C@@H](O)[C@H]1O; test: coupled enzymatic steady-state ATPase assay; conditions: microtubule-activated (pig brain tubulin), 12.5 mM Aces-KOH, 25 mM potassium acetate, 5 mM MgCl2, EGTA, pH 6.8, 22°C
Text: coupled enzymatic steady-state ATPase assay on NcKin (NcKin436; wildtype reference)

Nc1ncnc2c1ncn2[C@@H]1O[C@H](COP(=O)(O)OP(=O)(O)OP(=O)(O)O)[C@@H](O)[C@H]1O [ATP]
Km (Head3/Neck1 [1]): 105 ± 26.6 µM | Km (Head1/Neck3): 33.1 ± 4.6 µM | Km (Head3/Neck1 [2]): 49.1 ± 1.3 µM

B1: NcKin (NcKin436; wildtype reference) (Neurospora crassa OR74A) (protein)
chain: MSSSANSIKVVARFRPQNRVEIESGGQPIVTFQGPDTCTVDSKEAQGSFTFDRVFDMSCKQSDIFDFSIKPTVDDILNGYNGTVFAYGQTGAGKSYTMMGTSIDDPDGRGVIPRIVEQIFTSILSSAANIEYTVRVSYMEIYMERIRDLLAPQNDNLPVHEEKNRGVYVKGLLEIYVSSVQEVYEVMRRGGNARAVAATNMNQESSRSHSIFVITITQKNVETGSAKSGQLFLVDLAGSEKVGKTGASGQTLEEAKKINKSLSALGMVINALTDGKSSHVPYRDSKLTRILQESLGGNSRTTLIINCSPSSYNDAETLSTLRFGMRAKSIKNKAKVNAELSPAELKQMLAKAKTQITSFENYIVNLESEVQVWRGGETVPKEKWVPPLELAITPSKSASTTARPSTPSRLLPESRAETPAISDRAGTPSLPLDKDE
notes: C-terminally truncated NcKin436 (motor, neck-linker, neck coiled coil, partial stalk), expressed from pT7 vector; C-terminal reactive-cysteine peptide … or hTail; dimer
Km [3]: 64.5 ± 20.4 µM | kcat [3]: 66.9 ± 18.1 s⁻¹
